According to patent US4065570A (priority 1975, dated 1977):
Like-named read-outs stand apart in the source and are kept apart here.

Key:
Vero cells = assay: cytotoxicity against Vero cells; format: cell-based, African green monkey; settings: for Toxicity (%): Vero
Description: (§1) In preparing the compounds for testing, they were handled aseptically throughout. The compounds were dissolved in a minimum amount of a suitable solvent, and the final dilutions were made up to the required volume in a complete culture medium in a concentration not exceeding the predetermined maximum non-cytotoxic levels.
(§2) The cell cultures used in all primary in vitro antipicorna virus screening tests were an established cell line of the African green monkey kidney (VERO), a primary cell culture of the Cercopythecus monkey kidney, or human embryonic lung diploid cells WI-38.
(§3) The cytotoxic stuides were performed on each of the compounds to determine the level of response of the cells used to the potentially toxic action of the substances.
(§4) The cells were grown in test tubes in a suitable medium. Immediately before use the initial medium was replaced with the one which contained the test compound in an appropriate concentration. After the virus was added, the infected culture was incubated at 37° C for a number of days and the cytopathic effect of the virus observed and recorded. The results were read every day in all of the tubes and the destruction of cells assessed in precentage of the cell sheet destroyed: 0-25-50-75-100%. As controls, cells with only virus (for cytopathic effect) or with only the compound (for cytotoxic effect) were used as well as the normal, uninfected cells (no cytotoxic -- no cytopathic effects).

Cynomolgus monkeys = settings: cynomolgus monkey, in vivo, 25 mg/kg/day
[1] = tested on: viruses of the Picorna group; assay: antiviral activity (general statements); format: cell-based; settings: result in words
Description: The in vitro activity of representative compounds of the present invention are set forth below.
as §1, §2, §4
(§5) Net difference in cytopathic effect between treated and control tubes expressed in percentage give the extent of the inhibitory activity of the substance.

Polio I = assay: organism not typed; format: cell-based; settings: Vero
[2] = tested on: Mahoney strain of Polio virus; format: in vivo, Cynomolgus monkey
Echo 9 = format: cell-based; settings: Echo 9, Vero, 31.6 TCID50
Description: as §1, §2
(§6) Standard batches of the viruses were made by growing the virus in an appropriate cell culture and then making a pool which was dispersed in ampoules and kept frozen at -76° C until used. The titer of each virus was determined in the cell cultures used.
as §4, §5
(§7) The TCID50 represents the tissue culture infective dose of virus that will destroy 50% of the cells.

Echo 11 = format: cell-based; settings: Echo 11, Primary Monkey Kidney Cells, 178 TCID50
Description: as §1, §2, §6, §4, §5, §7

[3] = tested on: primary monkey kidney cells; assay: cytotoxicity against primary monkey kidney cells; format: cell-based, Cercopythecus monkey; settings: for Toxicity (%): pMK
Description: as §1, §2, §3, §4

mice = assay: LD50 in mice; format: in vivo
[4] = Virus + Substance, 25 mg/kg/day, i.p. or s.c.
[5] = Virus + Substance, 25 mg/kg/day, 4th Day
[6] = Virus + Substance, 25 mg/kg/day, 8th Day
[7] = Virus + Substance, 25 mg/kg/day, 11th Day
[8] = Virus + Substance, 25 mg/kg/day, 15th Day

Q: For “Acetylated 5-(3',4',-Dimethoxybenzal) hydantoin [Example 14]”, which “Cytotoxicity CTD50” value (Vero cells; Vero cells, 50% inhibition of the cell growth) is on record?
A: > 100 µg/mL

Q: And the “Cytotoxicity CTD0” value (Vero cells; Vero cells, maximal non-toxic concentration)?
A: > 10 µg/mL

Q: And the “Toxicity (%)” value (Vero cells; 0.1 micrograms/ml)?
A: 0%

Q: What about the “Toxicity (%)” value (Vero cells; 0.3 micrograms/ml) of the same substance?
A: 0%

Q: What about the “Toxicity (%)” value (Vero cells; 0.7 micrograms/ml) of the same substance?
A: 0%

Q: What about the “Toxicity (%)” value (Vero cells; 1.0 micrograms/ml) of the same substance?
A: 0%

Q: What about the “Toxicity (%)” value (Vero cells; 3.3 micrograms/ml) of the same substance?
A: 0%

Q: And the “Toxicity (%)” value (Vero cells; 6.7 micrograms/ml)?
A: 0%

Q: What about the “Toxicity (%)” value (Vero cells; 10 micrograms/ml) of the same substance?
A: 10%

Q: And the “Toxicity (%)” value (Vero cells; 25 micrograms/ml)?
A: 10%

Q: What about the “Toxicity (%)” value (Vero cells; 33.3 micrograms/ml) of the same substance?
A: 10%

Q: What about the “Toxicity (%)” value (Vero cells; 50 micrograms/ml) of the same substance?
A: 10%

Q: And the “Toxicity (%)” value (Vero cells; 66.7 micrograms/ml)?
A: 10%

Q: What about the “Toxicity (%)” value (Vero cells; 75 micrograms/ml) of the same substance?
A: 10%

Q: And the “Toxicity (%)” value (Vero cells; 100 micrograms/ml)?
A: 10%

Q: What about the “Toxicity (%)” value (Vero cells; 150 micrograms/ml) of the same substance?
A: 10%

Q: And the “Toxicity (%)” value (Vero cells; 200 micrograms/ml)?
A: 25%

Q: And the “Toxicity (%)” value (Vero cells; 250 micrograms/ml)?
A: 75%

Q: And the “Toxicity (%)” value (Vero cells; 300 micrograms/ml)?
A: 100%

Q: And the “Cumulative morbidity, paralyses, %” value (Cynomolgus monkeys)?
A: 0%

Q: What about the “Cumulative morbidity, paralyses, No.” value (Cynomolgus monkeys) of the same substance?
A: 0/5

Q: What about the “Histopathological changes as brain, %” value (Cynomolgus monkeys) of the same substance?
A: 0%

Q: What about the “Histopathological changes as brain, No.” value (Cynomolgus monkeys) of the same substance?
A: 0/5

Q: And the “degree of antiviral activity” value [1]?
A: greater degree of antiviral activity than the unacetylated compound

Q: And the “% Inhibition” value (Polio I; 316 TCID50, 0.5 μg/ml)?
A: 93%

Q: What about the “% Inhibition” value (Polio I; 316 TCID50, 1 μg/ml) of the same substance?
A: 100%

Q: And the “% Inhibition” value (Polio I; 316 TCID50, 5 μg/ml)?
A: 100%

Q: What about the “% Inhibition” value (Polio I; 316 TCID50, 10 μg/ml) of the same substance?
A: 100%

Q: And the “effectiveness against the Mahoney Polio virus strain in the infected animals” value ([2]; Cynomolgus monkeys, result in words)?
A: effective against the Mahoney Polio virus strain in the infected animals

Q: And the “Average Day of Paralysis” value [2, 4]?
A: 13.5

Q: What about the “Cumulative morbidity, paralyses, %” value [2, 4] of the same substance?
A: 25.0%

Q: And the “Cumulative morbidity, paralyses, No.” value [2, 4]?
A: 2/8

Q: And the “Histopathological changes as brain, %” value [2, 4]?
A: 20.0%

Q: And the “Histopathological changes as brain, No.” value [2, 4]?
A: 2/10

Q: What about the “Presence of poliovirus in rectal, %” value [2, 5] of the same substance?
A: 36.4%

Q: And the “Presence of poliovirus in rectal, No.” value [2, 5]?
A: 4/11

Q: What about the “Presence of poliovirus in rectal, %” value [2, 6] of the same substance?
A: 25.0%

Q: What about the “Presence of poliovirus in rectal, No.” value [2, 6] of the same substance?
A: 2/8

Q: And the “Presence of poliovirus in rectal, %” value [2, 7]?
A: 25.0%

Q: What about the “Presence of poliovirus in rectal, No.” value [2, 7] of the same substance?
A: 2/8

Q: And the “Presence of poliovirus in rectal, %” value [2, 8]?
A: 16.7%

Q: What about the “Presence of poliovirus in rectal, No.” value [2, 8] of the same substance?
A: 1/6

Q: And the “% Inhibition” value (Echo 9; 0.1 μg/ml)?
A: 8%

Q: What about the “% Inhibition” value (Echo 9; 0.3 μg/ml) of the same substance?
A: 29%

Q: What about the “% Inhibition” value (Echo 9; 0.7 μg/ml) of the same substance?
A: 42%

Q: And the “% Inhibition” value (Echo 9; 1.0 μg/ml)?
A: 71%

Q: And the “% Inhibition” value (Echo 9; 3.3 μg/ml)?
A: 92%

Q: And the “% Inhibition” value (Echo 9; 6.7 μg/ml)?
A: 100%

Q: What about the “% Inhibition” value (Echo 9; 10.0 μg/ml) of the same substance?
A: 100%

Q: What about the “% Inhibition” value (Echo 11; 0.1 μg/ml) of the same substance?
A: 7%

Q: What about the “% Inhibition” value (Echo 11; 0.3 μg/ml) of the same substance?
A: 32%

Q: And the “% Inhibition” value (Echo 11; 0.7 μg/ml)?
A: 32%

Q: What about the “% Inhibition” value (Echo 11; 1.0 μg/ml) of the same substance?
A: 68%

Q: And the “% Inhibition” value (Echo 11; 3.3 μg/ml)?
A: 100%

Q: And the “% Inhibition” value (Echo 11; 6.7 μg/ml)?
A: 100%

Q: What about the “% Inhibition” value (Echo 11; 10 μg/ml) of the same substance?
A: 100%

Q: What about the “% Inhibition” value (Echo 11; 25 μg/ml) of the same substance?
A: 100%

Q: What about the “% Inhibition” value (Echo 11; 50 μg/ml) of the same substance?
A: 100%

Q: What about the “% Inhibition” value (Echo 11; 100 μg/ml) of the same substance?
A: 100%

Q: What about the “Cytotoxicity CTD50” value ([3]; Primary Monkey Kidney Cells, 50% inhibition of the cell growth) of the same substance?
A: > 100 µg/mL

Q: And the “Cytotoxicity CTD0” value ([3]; Primary Monkey Kidney Cells, maximal non-toxic concentration)?
A: > 100 µg/mL

Q: What about the “Toxicity (%)” value ([3]; 0.1 micrograms/ml) of the same substance?
A: 0%

Q: What about the “Toxicity (%)” value ([3]; 0.3 micrograms/ml) of the same substance?
A: 0%

Q: What about the “Toxicity (%)” value ([3]; 0.7 micrograms/ml) of the same substance?
A: 0%

Q: What about the “Toxicity (%)” value ([3]; 1.0 micrograms/ml) of the same substance?
A: 0%

Q: What about the “Toxicity (%)” value ([3]; 3.3 micrograms/ml) of the same substance?
A: 0%

Q: What about the “Toxicity (%)” value ([3]; 6.7 micrograms/ml) of the same substance?
A: 0%

Q: What about the “Toxicity (%)” value ([3]; 10 micrograms/ml) of the same substance?
A: 0%

Q: And the “Toxicity (%)” value ([3]; 25 micrograms/ml)?
A: 0%

Q: What about the “Toxicity (%)” value ([3]; 33.3 micrograms/ml) of the same substance?
A: 0%

Q: And the “Toxicity (%)” value ([3]; 50 micrograms/ml)?
A: 0%

Q: What about the “Toxicity (%)” value ([3]; 66.7 micrograms/ml) of the same substance?
A: 0%

Q: What about the “Toxicity (%)” value ([3]; 75 micrograms/ml) of the same substance?
A: 0%

Q: And the “Toxicity (%)” value ([3]; 100 micrograms/ml)?
A: 0%

Q: And the “Toxicity (%)” value ([3]; 150 micrograms/ml)?
A: 10%

Q: And the “Toxicity (%)” value ([3]; 200 micrograms/ml)?
A: 75%

Q: And the “Toxicity (%)” value ([3]; 250 micrograms/ml)?
A: 100%

Q: What about the “Toxicity (%)” value ([3]; 300 micrograms/ml) of the same substance?
A: 100%

Q: And the “subacute LD50” value (mice; intraperitoneal, daily injection during 16 days)?
A: 400 to 500 mg/kg

Q: What about the LD50 (mice; oral administration) of the same substance?
A: greater than 1,300 mg/kg
